According to ChEMBL document CHEMBL1149426 (Bioorg Med Chem Lett, 2006):

Legend:
Liver microsomes [1] = test: Metabolic stability in human liver microsomes; format: ADME, Microsome
Cholecystokinin receptor = molecular target: T1, Cholecystokinin receptor (Homo sapiens, UniProt P32239+P32238); test: Inhibitory activity against cholecystokinin receptor; format: protein assay
T1 sequence (P32239 whole entry): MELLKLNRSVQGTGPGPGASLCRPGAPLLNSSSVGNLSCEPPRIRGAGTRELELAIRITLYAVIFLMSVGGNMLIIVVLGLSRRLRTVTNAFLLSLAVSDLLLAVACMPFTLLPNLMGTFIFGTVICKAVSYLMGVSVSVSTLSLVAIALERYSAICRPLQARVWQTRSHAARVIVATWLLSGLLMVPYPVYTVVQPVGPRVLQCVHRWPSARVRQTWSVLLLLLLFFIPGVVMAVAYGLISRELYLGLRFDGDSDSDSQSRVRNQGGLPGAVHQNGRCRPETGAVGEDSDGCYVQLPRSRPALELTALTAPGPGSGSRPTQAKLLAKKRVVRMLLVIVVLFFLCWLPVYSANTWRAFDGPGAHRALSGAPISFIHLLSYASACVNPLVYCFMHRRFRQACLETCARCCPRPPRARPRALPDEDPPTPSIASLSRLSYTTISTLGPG
T1 sequence (P32238 whole entry): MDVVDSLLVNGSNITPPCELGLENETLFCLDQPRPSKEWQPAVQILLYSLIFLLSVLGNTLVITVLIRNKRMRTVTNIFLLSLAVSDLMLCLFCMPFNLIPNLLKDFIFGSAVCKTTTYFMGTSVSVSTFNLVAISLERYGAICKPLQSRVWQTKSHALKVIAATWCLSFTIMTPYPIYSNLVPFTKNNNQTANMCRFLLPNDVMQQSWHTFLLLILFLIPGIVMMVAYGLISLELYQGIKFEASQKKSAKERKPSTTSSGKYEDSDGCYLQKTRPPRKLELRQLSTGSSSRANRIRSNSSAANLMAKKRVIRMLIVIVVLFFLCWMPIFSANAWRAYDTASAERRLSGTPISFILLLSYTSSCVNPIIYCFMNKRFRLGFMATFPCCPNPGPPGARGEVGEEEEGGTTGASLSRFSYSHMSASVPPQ

D(1B) dopamine receptor = D(1B) dopamine receptor (Homo sapiens, UniProt P21918); test: Inhibitory activity against dopamine D5 receptor
D(1B) dopamine receptor, sequence (P21918 whole entry): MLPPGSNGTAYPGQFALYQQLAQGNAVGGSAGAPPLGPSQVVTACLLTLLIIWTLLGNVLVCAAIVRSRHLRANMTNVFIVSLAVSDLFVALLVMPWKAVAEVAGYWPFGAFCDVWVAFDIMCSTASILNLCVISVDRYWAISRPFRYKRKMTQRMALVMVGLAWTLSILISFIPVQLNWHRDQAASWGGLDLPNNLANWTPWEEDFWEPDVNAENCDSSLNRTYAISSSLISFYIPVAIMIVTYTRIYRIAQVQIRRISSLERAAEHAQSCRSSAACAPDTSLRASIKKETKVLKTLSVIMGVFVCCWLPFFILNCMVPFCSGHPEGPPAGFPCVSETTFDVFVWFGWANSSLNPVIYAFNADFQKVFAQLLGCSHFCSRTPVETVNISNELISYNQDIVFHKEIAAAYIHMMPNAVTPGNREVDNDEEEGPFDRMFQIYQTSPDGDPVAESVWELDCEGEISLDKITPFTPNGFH

[2] = molecular target: GABA-A receptor; anion channel; test: Inhibitory activity against central benzodiazepine receptor; format: protein-complex assay
[3] = Permeability across Caco-2 cell membrane; format: ADME, cell-based; details: human
Adenosine receptor = Adenosine receptor (Homo sapiens, UniProt P30542+P29275+P0DMS8+P29274); test: Inhibitory activity against adenosine receptor; format: protein assay
[4] = molecular target: Muscarinic acetylcholine receptor; test: Inhibitory activity against muscarinic receptor; format: protein assay
D(1A) dopamine receptor = D(1A) dopamine receptor (Homo sapiens, UniProt P21728); test: Inhibitory activity against dopamine D1 receptor
D(1A) dopamine receptor, sequence (P21728 whole entry): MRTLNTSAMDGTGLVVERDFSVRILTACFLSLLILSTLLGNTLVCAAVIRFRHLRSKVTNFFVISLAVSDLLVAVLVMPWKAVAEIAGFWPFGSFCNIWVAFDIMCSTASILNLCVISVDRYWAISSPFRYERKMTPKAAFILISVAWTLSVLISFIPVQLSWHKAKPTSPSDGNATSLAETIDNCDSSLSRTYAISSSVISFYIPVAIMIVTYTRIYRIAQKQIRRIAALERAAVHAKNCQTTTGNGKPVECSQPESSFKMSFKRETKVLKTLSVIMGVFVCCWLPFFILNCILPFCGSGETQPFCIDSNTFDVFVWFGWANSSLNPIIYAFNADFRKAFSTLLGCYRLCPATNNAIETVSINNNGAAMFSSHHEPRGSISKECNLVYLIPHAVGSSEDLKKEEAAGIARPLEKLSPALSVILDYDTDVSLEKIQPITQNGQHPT

Rattus norvegicus = test: Ability to restitute huddling in rat at 2.15 mg/kg, po; format: functional
Liver microsomes [5] = test: Metabolic stability in rat liver microsomes; format: ADME, Microsome
[6] = Inhibitory activity against 5HT receptor
[7] = molecular target: Opioid receptors; mu/kappa/delta (Homo sapiens, UniProt P41145+P41143+P35372); test: Inhibitory activity against opioid receptor; format: protein assay
D(2) dopamine receptor = D(2) dopamine receptor (Homo sapiens, UniProt P14416); test: Binding affinity to human cloned dopamine D2 receptor
D(2) dopamine receptor, sequence (P14416 whole entry): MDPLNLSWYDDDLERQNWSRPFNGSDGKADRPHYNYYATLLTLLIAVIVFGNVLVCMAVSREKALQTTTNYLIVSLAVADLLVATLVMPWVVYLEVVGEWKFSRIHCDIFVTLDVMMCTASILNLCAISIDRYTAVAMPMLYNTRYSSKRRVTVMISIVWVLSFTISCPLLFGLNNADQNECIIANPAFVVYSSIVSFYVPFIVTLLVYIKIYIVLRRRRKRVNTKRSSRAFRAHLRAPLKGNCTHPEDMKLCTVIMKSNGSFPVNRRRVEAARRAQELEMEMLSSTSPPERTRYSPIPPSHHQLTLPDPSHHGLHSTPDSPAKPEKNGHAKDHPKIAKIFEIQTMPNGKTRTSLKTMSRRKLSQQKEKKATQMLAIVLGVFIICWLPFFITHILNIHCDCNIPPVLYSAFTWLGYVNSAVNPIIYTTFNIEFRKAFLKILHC

[8] = Inhibitory activity against adrenergic receptor
[9] = Inhibitory activity against GABA receptor
Canis familiaris = species on record: Canis familiaris; test: Metabolic stability in dog liver microsomes; format: ADME, Canis lupus familiaris
[10] = Inhibitory activity against neurotransmitter transporter
D(3) dopamine receptor = D(3) dopamine receptor (Homo sapiens, UniProt P35462); test: Binding affinity to human cloned dopamine D3 receptor
D(3) dopamine receptor, sequence (P35462 whole entry): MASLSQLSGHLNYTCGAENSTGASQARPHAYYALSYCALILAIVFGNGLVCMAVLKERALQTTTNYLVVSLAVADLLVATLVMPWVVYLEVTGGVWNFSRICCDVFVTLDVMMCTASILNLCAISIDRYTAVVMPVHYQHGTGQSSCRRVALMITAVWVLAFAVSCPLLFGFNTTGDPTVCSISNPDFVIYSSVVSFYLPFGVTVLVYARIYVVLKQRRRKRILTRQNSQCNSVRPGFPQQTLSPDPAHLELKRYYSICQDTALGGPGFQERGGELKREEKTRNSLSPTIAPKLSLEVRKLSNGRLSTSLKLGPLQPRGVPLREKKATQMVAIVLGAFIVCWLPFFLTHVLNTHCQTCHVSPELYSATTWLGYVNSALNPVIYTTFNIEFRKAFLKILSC

Ki (D(2) dopamine receptor) | Ki (D(3) dopamine receptor) | SMILES | also measured
 | 93.8 nM | CC(C)(C)c1nc(N2CCN(CCCN3C(=O)CCc4ccccc43)CC2)cc(C(F)(F)F)n1 | 
243 nM | 10.1 nM | COc1cccc2c1CCCC(=O)N2CCCCN1CCN(c2cc(C(F)(F)F)nc(C(C)(C)C)n2)CC1 | 
467 nM |  | COc1cc2c(cc1OC)N(CCCCN1CCN(c3cc(C(F)(F)F)nc(C(C)(C)C)n3)CC1)C(=O)CCC2=O | 
118 nM | 16.8 nM | CC(C)(C)c1nc(N2CCN(CCCCN3C(=O)CCCc4ccccc43)CC2)cc(C(F)(F)F)n1 | 
354 nM | 12.1 nM | CC(C)(C)c1nc(N2CCN(CCCCN3C(=O)COc4ccccc43)CC2)cc(C(F)(F)F)n1 | 
261 nM | 64.9 nM | C[C@H](CCN1CCN(c2cc(C(F)(F)F)nc(C(C)(C)C)n2)CC1)CN1C(=O)CCc2ccccc21 | 
 | 293 nM | CC(C)(C)c1nc(N2CCN(CCCCN3Cc4ccccc4CC3=O)CC2)cc(C(F)(F)F)n1 | 

Second part, the compound before the results:

SMILES | Ki (D(2) dopamine receptor) | Ki (D(3) dopamine receptor) | also measured
CC(C)(C)c1nc(N2CCN(CCCCN3C(=O)CCC(=O)c4ccccc43)CC2)cc(C(F)(F)F)n1 | 246 nM |  | Stability (Liver microsomes [1]): > 97%; IC50 (Cholecystokinin receptor): > 10000 nM; IC50 (D(1B) dopamine receptor): > 10000 nM; IC50 [2]: > 10000 nM; Papp [3]: 0.33 ×10⁻⁶ cm/s; IC50 (Adenosine receptor): > 10000 nM; IC50 [4]: > 10000 nM; IC50 (D(1A) dopamine receptor): > 10000 nM; Activity (Rattus norvegicus): 37%; Stability (Liver microsomes [5]): > 97%; IC50 [6]: > 10000 nM; IC50 [7]: > 10000 nM; IC50 [8]: > 10000 nM; IC50 [9]: > 10000 nM; Stability (Canis familiaris): > 97%; IC50 [10]: > 10000 nM
CC(C)(C)c1nc(N2CCN(CCCCN3C(=O)CCCc4c(O)cccc43)CC2)cc(C(F)(F)F)n1 | 93 nM |  | 
CC(C)(C)c1nc(N2CCN(CCCCN3C(=O)CC(=O)c4ccccc43)CC2)cc(C(F)(F)F)n1 | 142 nM | 39.6 nM | 
C/C(=C\CN1CCN(c2cc(C(F)(F)F)nc(C(C)(C)C)n2)CC1)CN1C(=O)CCc2ccccc21 | 669 nM | 58.9 nM | 
CC(C)(C)c1nc(N2CCN(CCCCN3CCC(=O)CCC3=O)CC2)cc(C(F)(F)F)n1 | 65 nM | 3.9 nM | 
CC(C)(C)c1nc(N2CCN(CCCCCN3C(=O)CCc4ccccc43)CC2)cc(C(F)(F)F)n1 |  | 4050 nM | 
CC(C)(C)c1nc(N2CCN(C/C=C/CN3C(=O)CCc4ccccc43)CC2)cc(C(F)(F)F)n1 | 254 nM |  | 
CC(C)(C)c1nc(N2CCN(CCCCn3c(=O)ccc4ccccc43)CC2)cc(C(F)(F)F)n1 | 151 nM | 11.2 nM | 
C[C@@H](CCCN1C(=O)CCc2ccccc21)N1CCN(c2cc(C(F)(F)F)nc(C(C)(C)C)n2)CC1 | 289 nM | 22.4 nM | 
CC(C)(C)c1nc(N2CCN(CCCCN3C(=O)CCSc4ccccc43)CC2)cc(C(F)(F)F)n1 | 83 nM | 9.6 nM | 
CC(C)(C)c1nc(N2CCN(CCCCN3C(=O)CCc4ccccc43)CC2)cc(C(F)(F)F)n1 | 126 nM | 3.4 nM | 
